Consider 1 molecule from patent US20120115742A1, “METHODS FOR IDENTIFICATION” (Cambridge Enterprise Limited, priority 2009, published 2012).

In one test the test system is Panc-2H4 cells. The experiment in a line: Human Panc-2H4 insulin suppression assay. In kind it is cell-based. The source says: (§1) Two different assays for “classical” sstr2 functions were adopted: (1) cultured foetal rat pituitary cells secreted growth hormone which is inhibited by sstr2 agonists in a dose-dependent fashion and (2) selected glucose-sensitive sub-clones of the human Panc-1 cell line secrete insulin which is inhibited by sstr2 agonists in a dose-dependent fashion.
Glucose-sensitive sub-clones of the human Panc-1, a cell line derived from a pleiomorphic epithelioid carcinoma of the exocrine pancreas, were obtained essentially as described by Hamil et al. (2008) Biomed. Sci. Instrum. 44:441-6. Briefly, Panc-1 cells were subcultured in 24 well plates, and the medium was supplemented with an additional 5% glucose. […] The resulting sub-lines were then tested for glucose sensitivity by preparing wells of a 96-well plate (5×10^4 cells per well) which were then exposed to cultured medium containing a range of glucose concentrations (low glucose DMEM, DMEM, DMEM+1% glucose, DMEM+2.5% glucose and DMEM+5% glucose). After 24 hrs incubation, the conditioned medium was collected and assayed for insulin secretion by ELISA (Linco; cat# EZHI-14K) in accordance with the manufacturer's instructions. […] Further 96 well plates were prepared using Panc-2H4 (5×10^4 cells per well) in DMEM. After 24 hrs, the medium was switched to DMEM+5% glucose containing various test agents at various concentrations (triplicate wells per condition). After a further 24 hrs, the conditioned medium was harvested and the concentration of insulin was determined by ELISA as described above.
(§2) Results were reported as the mean SD, expressed as the fold change from cells in the presence of vehicle only.

A further test concerns TNF-alpha. As to the kind of experiment: Sub-lethal endotoxemia model, serum TNF-alpha after LPS. The settings on record: dose-dependent; BN83250 s.c., valerolactam oral gavage. The format is in vivo, mouse. The method, then: We selected the sub-lethal endotoxemia model in mouse, because this has been well characterised in our laboratory (see for example Fox et al. (2002) J. Med. Chem. 45:360-70; Fox et al. (2005) J. Med. Chem. 48:867-74). The extent of systemic inflammation in response to a single intraperitoneal injection of bacterial lipopolysaccharide (LPS) can be estimated by measuring serum TNF-alpha 2 hours post challenge.
Methods: Mice (CD1 strain; adult males; 6 per group) were treated with BSCI (in an appropriate vehicle) or with vehicle alone by an appropriate route. […] Simultaneously, one set of mice at each BSCI concentration received BIM 23627 at 4 mg/animal (120 mg/kg) by sub-cutaneous injection (a treatment condition known to suppress classical sstr2-mediated signalling, such as GH release, in rats; Tulipano et al. (2002) 143:1218-24). Between 30 mins and 1 hour after dosing (a period when a maximal plasma concentration of BSCI has been achieved), the inflammatory challenge was elicited by intraperitoneal injection of 750 μg of LPS (Sigma; L4130 lot#024K4077; 900,000 EU/mg).
After a further 2 hours, the animals were sacrificed by CO2 asphyxiation, and blood was drawn by cardiac puncture. Serum was prepared by conventional methods, and the level of TNF-alpha in serum was measured using an ELISA (R&D Systems; Murine Quantikine code# MTA00) performed in accordance with the manufacturer's instructions.

In test [1] the test system is rat peripheral blood leukocytes. As to the kind of experiment: Rat chemokine-induced PBMC migration assay. The format is cell-based. The method, then:
Similarly, where human Panc-2H4 cells are used to determine the effect of agents on classical sstr2 targets, the result is compared with the effect of the same agents on chemokine-induced migration of human THP-1 cells. […] For this reason, the ratio of “classical” to “BSCI” activity in Table 3 is calculated separately for rat and human.

For the next test, the system named is fetal rat pituicytes. As to the kind of experiment: Rat pituicyte GH suppression assay. In kind it is cell-based. The following applies: Table 3; suppression compared to vehicle.
Text: as §1
Methods: Cultures of fetal rat pituicytes were established exactly as previously described (Murray et al. (2004) J. Clin. Endocrinol. Metab. 89:3027-32) by enzymatic dispersion. After 48 hrs in low glucose DMEM plus 10% FCS, cells in 48 well plates (5×10^4 cells per well) were washed for 4 hrs in serum-free DMEM and then incubated with test agents at various concentrations for a further 24 hrs in serum-free DMEM. At the end of this period, the conditioned medium was harvested, any cell debris removed by centrifugation and assayed for […] using a commercially available ELISA (Linco; cat# EZRMGH-45K) in accordance with the manufacturer's instructions.
as §2

The next test has as its system Jurkat-D3B cells. The experiment in a line: SDF-1α induced migration of Jurkat-D3B cells expressing sstr2. In kind it is cell-based, human. As for the experimental part:
Methods: Total mRNA was prepared from Panc-1 cells (a human pancreas cell line which is well known to express high levels of sstr2) using the RNAqueous 4PCR kit (Ambion, Cat code #1914) in accordance with the manufacturer's instructions. The mRNA was then reverse transcribed (using the RETROscript kit; Ambio) to yield a cDNA preparation. A full length cDNA of the sstr2 gene was then obtained by PCR (using a Peltier PTC-200 thermal cycler using the following cycle times and conditions: 94° C. for 2 min, followed by 30 cycles of 94° C., for 30 sec, 55° C. for 30 sec, 72° C. for 1 min and finally 72° C. for 10 min), and isolated by preparative gel electrophoresis. The sequence of the sstr2 cDNA was confirmed by sequencing. The sstr2 cDNA was treated with EcoRI and Xhol to generate sticky ends, which allowed directional cloning into the polylinker of the plasmid pcDNA3.1+ (Invitrogen) followed by ligation ([…] ligation reactions were run with 400 T4 DNA ligase (New England Biolabs) and the maximal amounts of DNA with an insert:plasmid ratio of 3:1 in ligase buffer incubated overnight at 13° C.). […]
A number of individual cell lines were obtained in this way, which expressed significant levels of sstr2 on the cell surface, detected by flow cytometry using the human-sstr2 antibody (Sigma, 50694; see Example 3 for details of the flow cytometry protocol used). […]

The subject of the next test is THP-1 cells. As to the kind of experiment: MCP-1 induced THP-1 cell migration (Transwell/ChemoTx).

Description for THP-1 cells: Leukocyte migration was measured using the 96-well format micro Transwell® assay system from Neuroprobe (Gaithersburg, Md., USA). In principle, this assay consists of two chambers separated by a porous membrane. The chemoattractant is placed in the lower compartment and the cells are placed in the upper compartment.
First, the cell suspension to be placed in the upper compartment was prepared. The THP-1 cells were pelleted by centrifugation (770×g; 4 mins) and washed with Geys Balanced Salt Solution with 1 mg/ml BSA (GBSS+BSA). This wash was then repeated, and the cells re-pelleted before being resuspended in a small volume of GBSS+BSA for counting, for example using a standard haemocytometer.
This ensured that there were 100,000 THP-1 cells in each 25 μl of the solution to be placed in the upper chamber of the plate.
To the third pot, GBSS+BSA plus vehicle as appropriate was added so that the volumes in three pots are equal, acting as a control.
Next, the chemoattractant solution to be placed in the lower compartment was prepared. […] This solution was divided into three pots, as for the cell suspension. To one pot, the BSCI was added to the same final concentration as was added to the cell suspension, in the second pot the BSCI and the sstr2 antagonist were both added at the same concentration as previously added to the cell suspension, while to the remaining pot GBSS+BSA plus vehicle as appropriate was added so that the volumes in the three pots were equal.
Once the chemoattractant solutions for the lower wells and cell solutions for the upper chambers were prepared, the migration chamber was assembled. 29 μl of the appropriate chemoattractant solution was placed into the lower well of the chamber. Assays were performed with at least triplicate determinations of each condition. Once all the lower chambers were filled, the porous membrane was applied to the chamber in accordance with the manufacturer's instructions. Finally, 25 μl of the appropriate cell solution was applied to each upper chamber. A plastic lid was placed over the entire apparatus to prevent evaporation.
The assembled chamber was incubated at 37° C., 5% CO2, for 2 hours.
At the end of the incubation, the liquid cell suspension was gently removed from the upper chamber, 20 μl of ice-cold 20 mM EDTA in PBS was added to the upper chamber, and the apparatus was incubated at 4° C. for 15 mins. This procedure caused any cells adhering to the underside of the membrane to fall into the lower chamber.
After this incubation the filter was carefully flushed with GBSS+BSA to wash off the EDTA, and then the filter was removed.
The number of cells migrated into the lower chamber under each condition can then be determined by a number of methods, including direct counting, labelling with fluorescent or radioactive markers or through the use of a vital dye. Typically, we utilised the vital dye MTT. 3 μl of stock MTT solution were added to each well, and then the plate was incubated at 37° C. for 1-2 hours during which time dehydrogenase enzymes within the cells converted the soluble MTT to an insoluble blue formazan product that could be quantified spectrophotometrically.
In parallel, an 8-point standard curve was set up. Starting with the number of cells added to each upper chamber (100,000) and going down in 2-fold serial dilutions in GBSS+BSA, the cells were added to a plate in 25 with 3 μl of MTT stock solution added. The standard curve plate was incubated along side the migration plate. At the end of this incubation, the liquid was carefully removed from the lower chambers, taking care not to disturb the precipitated formazan product.
The MCP-1 stimulated migration was determined by subtracting the average number of cells that reached the lower compartment in wells where no MCP-1 was added from the average number of cells that reached the lower compartment where MCP-1 was present at 25 ng/ml.

`CC(C)(C)C(=O)N[C@H]1CCCNC1=O` [Valerolactam, (S)-3-(2′2′-dimethylpropionoylamino)-tetrahydropyridin-2-one]: the EC50 with Panc-2H4 cells (Table 3, read-out: Human Panc-2H4 insulin suppression assay ED50) was over 1000 nM. The “Human Panc-2H4 insulin suppression assay Max effect” value in the test on Panc-2H4 cells (Table 3, suppression compared to vehicle) was under 10%. Further, the “inhibition of insulin secretion by Panc-2H4” value with Panc-2H4 cells (highest concentrations tested) is “None of these agents inhibited insulin secretion”. The “inhibition of LPS-induced systemic inflammation” value in the test with TNF-alpha is “dramatically inhibited”. The ““Classical”:“BSCI” potency ratio, Rat” value in test [1] (PBMC migration ED50 versus pituicyte GH ED50) amounted to 0.0009. Also, the “Rat chemokine-induced PBMC migration assay Max effect” value in test [1] (Table 3) turned out to be 100%. Also, the “Rat pituicyte GH suppression assay Max effect” value with fetal rat pituicytes is on record as 61%. In addition, the “sensitivity of Jurkat-D3B migration” value with Jurkat-D3B cells was “sensitive to inhibition”. Moreover, the “potency relative to BN83253” value in the test on THP-1 cells (MCP-1 induced THP-1 migration, FIG. 5 versus FIG. 4) was 20-50 fold. In the test on THP-1 cells (THP-1 migration ED50 versus Panc-2H4 insulin ED50), the ““Classical”:“BSCI” potency ratio, Human” value is recorded as under 0.00005. The “Human chemokine-induced THP-1 migration assay Max effect” value in the test on THP-1 cells (Table 3) is 100%.
